In patent US4619925A, “3-Propenyl cephalosporin derivatives” (priority 1985, dated 1986):
In brackets after ≈: the same amount, converted by molar mass. Where two headings read alike, the source gives them in different places.

Tests used:
[1] = system: S. aureus Smith; test: MIC, agar dilution technique (Mueller-Hinton Agar); type: cell-based; settings: Staphylococcus aureus, Gp-Ia, penicillin sensitive, read-out: Minimum Inhibitory Concentration
Excerpt: (§1) Each of these groups of organisms is constituted of five individual strains of microorganism. The Gp-Ia organisms are Gram-positive staphylococci which are sensitive to penicillin. The Gp-Ib organisms are Gram-positive staphylococci which are resistant to penicillin and produce penicillinase. The Gn-Ia organisms are Gram-negative bacteria which are sensitive to ampicillin and cephalothin. The Gn-Ib organisms are Gram-negative bacteria which are resistant to ampicillin and cephalothin.

[2] = system: S. aureus A9497; test: MIC, agar dilution technique (Mueller-Hinton Agar); type: cell-based; settings: Staphylococcus aureus, Gp-Ia, penicillin sensitive, read-out: Minimum Inhibitory Concentration
Excerpt: as §1

[3] = system: S. aureus No. 193; test: MIC, agar dilution technique (Mueller-Hinton Agar); type: cell-based; settings: Staphylococcus aureus, Gp-Ib, penicillin resistant, read-out: Minimum Inhibitory Concentration
Excerpt: as §1

[4] = system: E. coli A20341-1; test: MIC, agar dilution technique (Mueller-Hinton Agar); type: cell-based; settings: Escherichia coli, A203411, read-out: Minimum Inhibitory Concentration
Excerpt: as §1

[5] = system: E coli RGN-823; test: MIC, agar dilution technique (Mueller-Hinton Agar); type: cell-based; settings: Escherichia coli, RGN823, Gn-Ib, ampicillin and cephalothin resistant, read-out: Minimum Inhibitory Concentration
Excerpt: as §1

[6] = system: S. aureus A15092; test: MIC, agar dilution technique (Mueller-Hinton Agar); type: cell-based; settings: Staphylococcus aureus, Gp-Ib, penicillin resistant, read-out: Minimum Inhibitory Concentration
Excerpt: as §1

[7] = system: E. coli A15148; test: MIC, agar dilution technique (Mueller-Hinton Agar); type: cell-based; settings: Escherichia coli, A15148, read-out: Minimum Inhibitory Concentration
Excerpt: as §1

[8] = system: S. aureus A9534; test: MIC, agar dilution technique (Mueller-Hinton Agar); type: cell-based; settings: Staphylococcus aureus, Gp-Ia, penicillin sensitive, read-out: Minimum Inhibitory Concentration
Excerpt: as §1

[9] = system: S. aureus Russell; test: MIC, agar dilution technique (Mueller-Hinton Agar); type: cell-based; settings: Staphylococcus aureus, read-out: Minimum Inhibitory Concentration
Excerpt: as §1

[10] = system: E. coli A9660; test: MIC, agar dilution technique (Mueller-Hinton Agar); type: cell-based; settings: Escherichia coli, A9660, read-out: Minimum Inhibitory Concentration
Excerpt: as §1

[11] = system: K. pneumoniae A20346; test: MIC, agar dilution technique (Mueller-Hinton Agar); type: cell-based; settings: Klebsiella pneumoniae, A20346, read-out: Minimum Inhibitory Concentration
Excerpt: as §1

[12] = system: E. coli Juhl; test: MIC, agar dilution technique (Mueller-Hinton Agar); type: cell-based; settings: Escherichia coli, read-out: Minimum Inhibitory Concentration
Excerpt: as §1

[13] = system: K. pneumoniae D11; test: MIC, agar dilution technique (Mueller-Hinton Agar); type: cell-based; settings: Klebsiella pneumoniae, D11, read-out: Minimum Inhibitory Concentration
Excerpt: as §1

[14] = system: S. aureus Terajima; test: MIC, agar dilution technique (Mueller-Hinton Agar); type: cell-based; settings: Staphylococcus aureus, Gp-Ia, penicillin sensitive, read-out: Minimum Inhibitory Concentration
Excerpt: as §1

[15] = system: S. aureus A9602; test: MIC, agar dilution technique (Mueller-Hinton Agar); type: cell-based; settings: Staphylococcus aureus, A9602, read-out: Minimum Inhibitory Concentration
Excerpt: as §1

[16] = system: S. aureus BX-1633-2; test: MIC, agar dilution technique (Mueller-Hinton Agar); type: cell-based; settings: Staphylococcus aureus, BX16332, read-out: Minimum Inhibitory Concentration
Excerpt: as §1

[17] = system: S. aureus Smith; test: Protective dose for mice infected with lethal inoculum; type: in vivo; settings: po, 50% survival after five days
Excerpt: (§2) The data in Table 2 are results of protective doses (PD50) for mice infected with a lethal inoculum of bacteria. Two different bacteria were employed in the studies, one a Gram-positive organism (S. aureus Smith) and the other a Gram-negative organism (E. coli Juhl). The PD50 is that dose which, when administered to a group of injected mice, results in 50% survival after five days. Normally untreated infected mice die within three days following injection of the lethal inoculum.

[18] = system: E. coli Juhl; test: as above; type: in vivo; settings: 50% survival after five days
Excerpt: as §2

[19] = system: S. pyogenes A20201; test: In vitro activity against fastidious bacteria; type: cell-based; settings: Streptococcus pyogenes, A20201
Excerpt: (§3) Table 5 contains comparative data for in vitro antibacterial activity against fastidious bacteria.

[20] = system: H. influenzae A22483; test: In vitro activity against fastidious bacteria; type: cell-based; settings: Haemophilus influenzae, A22483
Excerpt: as §3

[21] = system: S. pyogenes A15040; test: In vitro activity against fastidious bacteria; type: cell-based; settings: Streptococcus pyogenes, A15040
Excerpt: as §3

[22] = system: N. gonorrheae A15112; test: In vitro activity against fastidious bacteria; type: cell-based
Excerpt: as §3

[23] = system: H. influenzae A21523; test: In vitro activity against fastidious bacteria; type: cell-based; settings: Haemophilus influenzae, A21523
Excerpt: as §3

[24] = system: S. pyogenes A20065; test: In vitro activity against fastidious bacteria; type: cell-based; settings: Streptococcus pyogenes, A20065
Excerpt: as §3

[25] = system: H. influenzae A20177; test: In vitro activity against fastidious bacteria; type: cell-based; settings: Haemophilus influenzae, A20177
Excerpt: as §3

[26] = system: S. pyogenes s-23; test: In vitro activity against fastidious bacteria; type: cell-based; settings: Streptococcus pyogenes, S23
Excerpt: as §3

[27] = system: H. influenzae A22482; test: In vitro activity against fastidious bacteria; type: cell-based; settings: Haemophilus influenzae, A22482
Excerpt: as §3

[28] = system: S. pyogenes A9604; test: In vitro activity against fastidious bacteria; type: cell-based; settings: Streptococcus pyogenes, A9604
Excerpt: as §3

[29] = system: N. gonorrheae A20154; test: In vitro activity against fastidious bacteria; type: cell-based
Excerpt: as §3

[30] = system: S. pneumoniae A15069; test: In vitro activity against fastidious bacteria; type: cell-based; settings: Streptococcus pneumoniae, A15069
Excerpt: as §3

[31] = system: N. meningitidis A21497; test: In vitro activity against fastidious bacteria; type: cell-based; settings: Neisseria meningitidis, A21497
Excerpt: as §3

[32] = system: H. influenzae A20193; test: In vitro activity against fastidious bacteria; type: cell-based; settings: Haemophilus influenzae, A20193
Excerpt: as §3

[33] = system: N. meningitidis A20048; test: In vitro activity against fastidious bacteria; type: cell-based; settings: Neisseria meningitidis, A20048
Excerpt: as §3

[34] = system: S. pneumoniae A20759; test: In vitro activity against fastidious bacteria; type: cell-based; settings: Streptococcus pneumoniae, A20759
Excerpt: as §3

[35] = system: S. pneumoniae A9585; test: In vitro activity against fastidious bacteria; type: cell-based; settings: Streptococcus pneumoniae, A9585
Excerpt: as §3

[36] = system: N. meningitidis A21495; test: In vitro activity against fastidious bacteria; type: cell-based; settings: Neisseria meningitidis, A21495
Excerpt: as §3

[37] = system: S. pyogenes Dick; test: In vitro activity against fastidious bacteria; type: cell-based; settings: Streptococcus pyogenes
Excerpt: as §3

[38] = system: H. influenzae A9833; test: In vitro activity against fastidious bacteria; type: cell-based; settings: Haemophilus influenzae, A9833
Excerpt: as §3

[39] = system: N. gonorrheae A20143; test: In vitro activity against fastidious bacteria; type: cell-based
Excerpt: as §3

[40] = system: N. meningitidis A21487; test: In vitro activity against fastidious bacteria; type: cell-based; settings: Neisseria meningitidis, A21487
Excerpt: as §3

[41] = system: S. pneumoniae Type II; test: In vitro activity against fastidious bacteria; type: cell-based; settings: Streptococcus pneumoniae
Excerpt: as §3

[42] = system: H. influenzae A9729; test: In vitro activity against fastidious bacteria; type: cell-based; settings: Haemophilus influenzae, A9729
Excerpt: as §3

[43] = system: N. gonorrheae A20155; test: In vitro activity against fastidious bacteria; type: cell-based
Excerpt: as §3

[44] = Mouse urinary recovery; type: in vivo, mice; settings: mouse, urine, po, 20 mg/kg; for dose excreted at 24 h: p.o.

Work on `N[C@@H](C(=O)N[C@@H]1C(=O)N2C(C(=O)O)=C(Cl)CS[C@H]12)c1ccccc1` [cefaclor] yielded an MIC [1] of 0.8 µg/mL (≈ 2.18 µM), an MIC [2] of 0.8 µg/mL (≈ 2.18 µM) and an MIC [3] of 6.3 µg/mL (≈ 17.1 µM). For the same compound, the MIC [4] was 6.3 µg/mL (≈ 17.1 µM), the MIC [5] was 25 µg/mL (≈ 68 µM) and the MIC [6] was 6.3 µg/mL (≈ 17.1 µM). For the same compound, the MIC [7] was 25 µg/mL (≈ 68 µM), the MIC [8] was 0.8 µg/mL (≈ 2.18 µM) and the MIC [9] was 3.1 µg/mL (≈ 8.43 µM). For the same compound, the MIC [10] was 0.8 µg/mL (≈ 2.18 µM), the MIC [11] was 6.3 µg/mL (≈ 17.1 µM) and the MIC [12] was 0.8 µg/mL (≈ 2.18 µM). For the same compound, the MIC [13] was 0.8 µg/mL (≈ 2.18 µM), the MIC [14] was 0.4 µg/mL (≈ 1.09 µM) and the MIC [15] was 3.1 µg/mL (≈ 8.43 µM). The MIC [16] was 6.3 µg/mL (≈ 17.1 µM), the “PD50 (protective dose)” value [17] was 0.20 and the “PD50 (protective dose)” value ([18]; im) was 0.8. The “PD50 (protective dose)” value ([18]; po) was 1.1, the MIC [19] was 0.2 µg/mL (≈ 0.544 µM) and the MIC [20] was 0.8 µg/mL (≈ 2.18 µM). It also gave an MIC [21] of 0.2 µg/mL (≈ 0.544 µM), an MIC [22] of 0.8 µg/mL (≈ 2.18 µM) and an MIC [23] of 0.8 µg/mL (≈ 2.18 µM). The MIC [24] was 0.2 µg/mL (≈ 0.544 µM), the MIC [25] was 0.8 µg/mL (≈ 2.18 µM) and the MIC [26] was 0.2 µg/mL (≈ 0.544 µM). For the same compound, the MIC [27] was 0.8 µg/mL (≈ 2.18 µM), the MIC [28] was 0.2 µg/mL (≈ 0.544 µM) and the MIC [29] was 0.8 µg/mL (≈ 2.18 µM). The MIC [30] was 3.1 µg/mL (≈ 8.43 µM), the MIC [31] was 0.8 µg/mL (≈ 2.18 µM) and the MIC [32] was 0.8 µg/mL (≈ 2.18 µM). The MIC [33] was 0.8 µg/mL (≈ 2.18 µM), the MIC [34] was 3.1 µg/mL (≈ 8.43 µM) and the MIC [35] was 0.8 µg/mL (≈ 2.18 µM). The MIC [36] was 0.8 µg/mL (≈ 2.18 µM), the MIC [37] was 0.2 µg/mL (≈ 0.544 µM) and the MIC [38] was 0.8 µg/mL (≈ 2.18 µM). It also gave an MIC [39] of 0.8 µg/mL (≈ 2.18 µM), an MIC [40] of 0.8 µg/mL (≈ 2.18 µM) and an MIC [41] of 0.8 µg/mL (≈ 2.18 µM). It also gave an MIC [42] of 0.8 µg/mL (≈ 2.18 µM), an MIC [43] of 0.8 µg/mL (≈ 2.18 µM) and a dose excreted at 2 h ([44]; 0-2 hr) of 60%. For the same compound, the dose excreted at 4 h ([44]; 2-4 hr) was 6.7%, the dose excreted at 6 h ([44]; 4-6 hr) was 0.3% and the dose excreted at 24 h ([44]; 6-24 hr, read-out: Mouse urinary recovery 6-24 hr) was 1.5%. The dose excreted at 24 h ([44]; total, read-out: Mouse urinary recovery Total) was 69%.
